{"source": "paper PMC7144397", "about": "(Molecules, 2020)", "target": "myotoxic Asp-49 phospholipase A2 (PLA2) from Crotalus durissus cumanensis venom", "test": "chromogenic PLA2 assay, […] nm, 96-well plate", "type": "biochemical", "details": "substrate 4-nitro-3-octanoyloxybenzoic acid type (4N3OBA, 20 μL of 10 mM); 10 mM Tris-HCl, 10 mM CaCl2, 100 mM NaCl, pH 8.0; 37 °C; 20 μg PLA2, 30 min pre-incubation; from linear portion of the dose-r"}
{"smiles": "O=[N+]([O-])c1ccc(C(=S)SCc2ccccc2)cc1", "note": "[I, Benzyl 4-nitrobenzenecarbodithioate]", "values": [{"measurement": "IC50", "value": "55.6 ± 4.6", "unit": "µM"}]}
